Here are results for four molecules from paper PMC8709388, “In Search of Small Molecules That Selectively Inhibit MBOAT4” (Molecules, 2021).

The test system of one data set is GOAT. The conditions noted are these: read-out: lit. IC50, cited from earlier work.
The subject of data set [1] is acyl ghrelin secretion from INS-1 cells (INS/GOAT/GHRL cell line). Description: INS-1 cellular assay: secreted acyl-ghrelin from INS/GOAT/GHRL cell line measured with ELISA. It counts as cell-based, mouse. As to conditions: for IC50: INS1, acyl-ghrelin secretion, read-out: in-house INS-1 IC50; for activity in cell culture (in words): acyl ghrelin secretion. An excerpt:
Generation of Recombinant Retrovirus for mGOAT Expression. The mouse GOAT cDNA with C-terminal HA tag was amplified from pcDNA3.1-mouseGOAT-HA vector (gift from Brown and Goldstein lab) using the following primers: mGOAT_attb1 (forward primer) 5′-[…]—3′(attb1 recombination site is in italics, 5′ of mGOAT coding sequence is in bold, and Kozak coding sequence is underlined) and mGOAT_attb2 (reverse primer) 5′-[…] -3′ (attb2 recombination site is in italics, 3′ of mGAOT-HA coding sequence is in bold, and stop codon is underlined). The PCR product was cloned into donor vector pDONR221 (ThermoFisher) with BP clonase according to manufacturer’s instructions. Positive clones were verified by DNA sequencing with M13F and M13R primers. The resulting entry plasmid pDONR221-mGOAT-HA was used to transfer mGOAT-HA cDNA to destination vector pBabe-puro (Addgene cat# 51070 [35]) using LR clonase according to manufacturer’s instructions. Positive clones were verified by DNA sequencing with pBABE-5 and pBABE-3 primers. The resulting plasmid, pBabe-puro-mGOAT-HA, was used to generate retrovirus. The retrovirus was packed in 293T PhoE (Phoenix-ECO AT0CC® CRL-3214™) cells and used to infect INS-1 cells. The stable INS/GOAT cells were selecting on 1 μg/mL puromycin and GOAT expression was confirmed with immunoblot of membrane fraction isolated from antibiotic resistant culture using anti-HA antibody.
Generation of Lentivirus for Expression of Ghrelin. The cDNA for mouse preproghrelin was subcloned from pcDNA3.1-preproghrelin (gift from Brown and Goldstein lab) into pULTRA vector (Addgene cat# 24129 [36]) with XbaI and BamHI restriction enzymes. Using of these restriction sites for cloning will result in the creation of bi-cistronic expression of ghrelin along with EGFP to facilitate identification of positive cells by fluorescence. The above restriction sites were engineered via PCR reaction using the following primers: ghrl_pultra_forw 5′-[…]-3′ (5′ of preproghrelin coding sequence is in bold; XbaI site is in italics) and ghrl_pultra_rev 5′-[…] -3′ (3′ of preproghrelin coding sequence is in bold, stop codon is underlined, and BamHI site is italics). The recombinant lentivirus encoding preproghrelin cDNA was packed in Lenti-X 293T cells (Takara cat# 632180) by co-transfection of pUltra-EGFP-mouse-preproghrelin, with packaging encoding plasmid pCMV ΔR8.2 (Addgene cat# 12263) and envelope encoding plasmid pCMV-VSV g (Addgene cat# 8454). The INS/GOAT cells were infected with recombinant lentivirus to generate INS/GOAT/GHRL cell line. After few passages, the population of cells with puromycin resistance and ~90% fluorescence was saved for cell-based assay.
Cellular assay. INS/GOAT/GHRL cell line was routinely cultured in RPMI medium supplemented with 10% FBS, 1% Pen/Strep, 10 mM HEPES pH 7.2 and 50 μM 2-mercaptoethanol. Day 0: One 10 cm dish at full confluency was used to seed one 96-well plate. Day 1: Growth media was removed and cells were washed with PBS prior to adding fresh growth media as above but without 2-mercaptoethanol. The serial dilutions of tested compound at 50× concentration were prepared in vehicle containing growth media without 2-mercaptoethnol supplemented with 6% DMSO and were added to cells in duplicates. Day 2: 10 μL of growth media were removed from each well and amount of secreted acyl-ghrelin was measured with ELISA (Cayman cat# 10006307).

A further data set concerns ghrelin production. More on the design: method as in earlier work. As to conditions: cited from earlier work.

Read-outs that look alike come from different tables or passages of the source.

Regarding `CNC(=O)c1cccc(Cc2c(C)nc3nonc3c2N)n1` [compound 6, reference compound], the IC50 (as a rule, the concentration that gives 50% inhibition) in the data set on GOAT (Boehringer Ingelheim compound) is 0.24 nM; in data set [1], 540 nM.
In the case of `CCCCOCC(=O)N1CCC(CCc2c(C)nc3nonc3c2N)CC1` [compound 10, 1-(4-(2-(7-amino-5-methyl-[1,2,5]oxadiazolo[3,4-b]pyridin-6-yl)ethyl)piperidin-1-yl)-2-butoxyethan-1-one], in data set [1], the IC50 is greater than 6600 nM and the “activity in cell culture (in words)” value is “much less active in cells”.
As to `Cc1nc2nonc2c(N)c1CCC1CCN(C(=O)[C@H](C)NC(=O)c2ccnn2C)CC1` [compound 11, (S)-N-(1-(4-(2-(7-amino-5-methyl-[1,2,5]oxadiazolo[3,4-b]pyridin-6-yl)ethyl)pip-eridin-1-yl)-1-oxopropan-2-yl)-1-methyl-1H-pyrazole-5-carboxamide], in data set [1], the “potency of blocking ghrelin secretion from INS-1 cells relative to 5” value turned out to be 4 fold, the IC50 was 160 nM and the “activity in cell culture (in words)” value is “most potent compound we have tested in our cellular assay”.
For the molecule `Cc1nc(Cl)nc(N)c1CCC1CCN(C(=O)[C@H](C)NC(=O)c2ccnn2C)CC1` [compound 5], in the data set on ghrelin production (at doses that inhibited ghrelin production), the adverse side effects result is recorded as “did not cause observable adverse side effects”. In the data set with ghrelin production, the “ghrelin production in vivo” value is given as “inhibited ghrelin production in vivo” and the oral bioavailability entry is reported as “orally bioavailable”. The IC50 with GOAT (Eli Lilly compound) is 57 nM. In data set [1], the 50% inhibitory concentration (IC50) worked out at 670 nM.
